≈ marks a conversion by molar mass, not a printed value. Where two headings read alike, the source gives them in different places.
Tests used:
[1] = system: Staph. aureus 209P vancomycin resistant mutant; assay: MIC, standard microtiter assay; type: cell-based; conditions: Staphylococcus aureus, read-out: MIC in μg/ml
Method: (§1) The in vitro minimal inhibitory concentration (MIC) and the in vitro minimal bactericidal concentration (MBC) of the AAJ-271 aglycones, pseudo-aglycone and vancomycin were determined for a number of microorganisms using the standard microtiter assay procedures.

Staph. epidermidis 2261 [2] = assay: MIC, standard microtiter assay; type: cell-based; conditions: Staphylococcus epidermidis, 2261, read-out: MIC in μg/ml
Method: as §1

Staph. aureus 675 = assay: MBC, standard assay procedures; type: cell-based
Method: (§2) The in vitro minimal bactericidal concentration (MBC) of the AAJ-271 C, C2 and C3 factors and vancomycin were determined for a number of microorganisms using standard assay procedures.
as §1

Staph. aureus HH127 [3] = assay: MBC, standard assay procedures; type: cell-based; conditions: Staphylococcus aureus
Method: as §2, §1

Staph. epidermidis 2265 = assay: MBC, standard assay procedures; type: cell-based
Method: as §2, §1

Staph. haemolyticus 651 [4] = assay: MBC, standard assay procedures; type: cell-based
Method: as §2, §1

[5] = system: Staph. aureus 209P vancomycin resistant mutant; assay: MBC, standard assay procedures; type: cell-based; conditions: Staphylococcus aureus, read-out: MBC in μg/ml
Method: as §1

Staph. aureus 209P = assay: MBC, standard assay procedures; type: cell-based; conditions: Staphylococcus aureus, 209P, read-out: MBC in μg/ml
Method: as §1

Staph. aureus 910 = assay: MBC, standard assay procedures; type: cell-based; conditions: Staphylococcus aureus, 910, read-out: MBC in μg/ml
Method: as §1

Staph. epidermidis 2256 = assay: MBC, standard assay procedures; type: cell-based; conditions: Staphylococcus epidermidis, 2256, read-out: MBC in μg/ml
Method: as §1

Staph. epidermidis 2261 [6] = assay: MBC, standard assay procedures; type: cell-based; conditions: Staphylococcus epidermidis, 2261, read-out: MBC in μg/ml
Method: as §1

Staph. epidermidis 2588 = assay: MBC, standard assay procedures; type: cell-based; conditions: Staphylococcus epidermidis, 2588, read-out: MBC in μg/ml
Method: as §1

[7] = system: Staph. saprophyticus 2657; assay: MBC, standard assay procedures; type: cell-based; conditions: Staphylococcus saprophyticus, 2657, read-out: MBC in μg/ml
Method: as §1

[8] = system: Strep. pyogenes (Group A); assay: MBC, standard assay procedures; type: cell-based; conditions: Streptococcus pyogenes, read-out: MBC in μg/ml
Method: as §1

Staph. aureus HH127 [9] = assay: Mouse protection assay; type: in vivo; conditions: Staphylococcus aureus
Staph. haemolyticus 651 [10] = assay: Mouse protection assay; type: in vivo; conditions: Staphylococcus haemolyticus, 1 h; mice; Staph. haemolyticus 651, Dosage as No. of LD50's=9; treatment one hour post infection; Table IV

`CN[C@H](CC(C)C)C(=O)N[C@H]1C(=O)N[C@@H](CC(N)=O)C(=O)N[C@H]2C(=O)N[C@H]3C(=O)N[C@H](C(=O)N[C@H](C(=O)O)c4cc(O)cc(O)c4-c4cc3ccc4O)[C@H](O)c3ccc(c(Cl)c3)Oc3cc2cc(c3O[C@@H]2O[C@H](CO)[C@@H](O)[C@H](O)[C@H]2O[C@H]2C[C@](C)(N)[C@H](O)[C@H](C)O2)Oc2ccc(cc2Cl)[C@H]1O` [Vancomycin, vancomycin] showed an MIC [1] of over 100 µg/mL, an MIC (Staph. epidermidis 2261 [2]) of 6.3 µg/mL (≈ 4.35 µM) and an MBC (Staph. aureus 675; Staphylococcus aureus, 675, read-out: MBC in μg/ml, Staph. aureus 675, Table IX) of 6.3 µg/mL (≈ 4.35 µM). For the same compound, the MBC (Staph. aureus 675; Staphylococcus aureus, 675, read-out: MBC in μg/ml, Staph. aureus 675, Table VIII) was 3.1 µg/mL (≈ 2.14 µM), the MBC (Staph. aureus 675; Staphylococcus aureus, IIIB, read-out: MBC in μg/ml, Staph. aureus 675, Table IIIB) was 6.3 µg/mL (≈ 4.35 µM) and the MBC (Staph. aureus HH127 [3]; HH127, read-out: MBC in μg/ml, Staph. aureus HH127, Table IX) was 3.1 µg/mL (≈ 2.14 µM). The MBC (Staph. aureus HH127 [3]; HH127, read-out: MBC in μg/ml, Staph. aureus HH127, Table VIII) was 1.6 µg/mL (≈ 1.1 µM), the MBC (Staph. aureus HH127 [3]; IIIB, read-out: MBC in μg/ml, Staph. aureus HH127, Table IIIB) was 3.1 µg/mL (≈ 2.14 µM) and the MBC (Staph. epidermidis 2265; Staphylococcus epidermidis, 2265, read-out: MBC in μg/ml, Staph. epidermidis 2265, Table IX) was 6.3 µg/mL (≈ 4.35 µM). For the same compound, the MBC (Staph. epidermidis 2265; Staphylococcus epidermidis, 2265, read-out: MBC in μg/ml, Staph. epidermidis 2265, Table VIII) was 3.1 µg/mL (≈ 2.14 µM), the MBC (Staph. epidermidis 2265; Staphylococcus epidermidis, IIIB, read-out: MBC in μg/ml, Staph. epidermidis 2265, Table IIIB) was 6.3 µg/mL (≈ 4.35 µM) and the MBC (Staph. haemolyticus 651 [4]; Staphylococcus haemolyticus, 651, read-out: MBC in μg/ml, Staph. haemolyticus 651, Table IX) was 12.5 µg/mL (≈ 8.63 µM). For the same compound, the MBC (Staph. haemolyticus 651 [4]; Staphylococcus haemolyticus, 651, read-out: MBC in μg/ml, Staph. haemolyticus 651, Table VIII) was 3.1 µg/mL (≈ 2.14 µM), the MBC (Staph. haemolyticus 651 [4]; Staphylococcus haemolyticus, IIIB, read-out: MBC in μg/ml, Staph. haemolyticus 651, Table IIIB) was 12.5 µg/mL (≈ 8.63 µM) and the MBC [5] was over 100 µg/mL. For the same compound, the MBC (Staph. aureus 209P) was 0.8 µg/mL (≈ 0.552 µM), the MBC (Staph. aureus 910) was 1.6 µg/mL (≈ 1.1 µM) and the MBC (Staph. epidermidis 2256) was 3.1 µg/mL (≈ 2.14 µM). For the same compound, the MBC (Staph. epidermidis 2261 [6]) was 3.1 µg/mL (≈ 2.14 µM), the MBC (Staph. epidermidis 2588) was 6.3 µg/mL (≈ 4.35 µM) and the MBC [7] was 6.3 µg/mL (≈ 4.35 µM). For the same compound, the MBC [8] was 0.8 µg/mL (≈ 0.552 µM), the ED50 (Staph. aureus HH127 [9]; HH127, 1 h) was 0.26 mg/kg and the ED50 (Staph. aureus HH127 [9]; HH127, iv, 1 h) was 2.8 mg/kg. For the same compound, the ED50 (Staph. haemolyticus 651 [10]) was 2.2 mg/kg.

Source: patent publication EP0255256A2, “Antibiotics produced by actinomadura parvosata” (SMITHKLINE BECKMAN CORPORATION, priority 1986, dated 1988)
